Reference: patent US20210038607A1, “OXADIAZOLYLTHIOPHENE DERIVATIVES USEFUL AS HISTONE DEACETYLASE INHIBITORS” (Karus Therapeutics Limited, priority 2018, published 2021)

Legend:
[1] = biological target: T1, Recombinant human HDAC6 (Homo sapiens, UniProt Q9UBN7); assay: HDAC6 biochemical assay, AMC-labeled peptide substrate; settings: HDAC6; read-out: HDAC Isoform IC50 (nM) 6
T1 construct: full length, MW=159 kDa; GST (N); host or cells: Sf9 insect cells (baculovirus)
T1 sequence (Q9UBN7 1-1215): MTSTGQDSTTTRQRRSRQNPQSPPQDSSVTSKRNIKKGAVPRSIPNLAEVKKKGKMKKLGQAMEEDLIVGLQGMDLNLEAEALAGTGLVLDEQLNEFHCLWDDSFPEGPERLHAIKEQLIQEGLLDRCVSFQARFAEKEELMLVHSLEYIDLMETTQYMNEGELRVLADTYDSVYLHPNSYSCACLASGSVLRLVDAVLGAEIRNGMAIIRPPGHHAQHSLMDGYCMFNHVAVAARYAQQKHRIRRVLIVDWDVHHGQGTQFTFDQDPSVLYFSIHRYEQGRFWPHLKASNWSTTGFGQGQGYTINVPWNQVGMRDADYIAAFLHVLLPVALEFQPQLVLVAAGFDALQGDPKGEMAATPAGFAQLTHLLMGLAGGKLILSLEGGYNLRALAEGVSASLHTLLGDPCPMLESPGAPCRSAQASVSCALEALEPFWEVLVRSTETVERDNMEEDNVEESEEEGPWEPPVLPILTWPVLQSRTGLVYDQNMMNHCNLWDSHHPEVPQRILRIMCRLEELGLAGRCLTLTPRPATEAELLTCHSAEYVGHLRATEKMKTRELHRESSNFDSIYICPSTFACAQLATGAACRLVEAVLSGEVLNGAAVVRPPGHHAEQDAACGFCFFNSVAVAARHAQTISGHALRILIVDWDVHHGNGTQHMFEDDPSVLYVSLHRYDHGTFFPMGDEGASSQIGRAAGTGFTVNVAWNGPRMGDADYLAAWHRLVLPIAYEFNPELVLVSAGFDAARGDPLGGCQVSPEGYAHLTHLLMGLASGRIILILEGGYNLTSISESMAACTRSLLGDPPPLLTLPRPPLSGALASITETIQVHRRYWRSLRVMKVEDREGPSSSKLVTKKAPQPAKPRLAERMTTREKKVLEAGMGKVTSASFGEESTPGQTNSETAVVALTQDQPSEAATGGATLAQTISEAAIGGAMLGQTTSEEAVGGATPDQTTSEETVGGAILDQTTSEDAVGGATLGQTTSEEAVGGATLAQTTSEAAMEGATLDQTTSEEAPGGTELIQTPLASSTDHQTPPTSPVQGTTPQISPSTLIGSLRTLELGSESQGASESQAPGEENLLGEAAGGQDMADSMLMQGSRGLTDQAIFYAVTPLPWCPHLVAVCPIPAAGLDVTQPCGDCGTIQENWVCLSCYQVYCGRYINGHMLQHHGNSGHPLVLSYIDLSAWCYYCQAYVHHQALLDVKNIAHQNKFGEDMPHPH
Summary of the method: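 Two-step fluorogenic read-out: enzyme deacetylates 50 μM RHKK(Ac)AMC for 1 h at 30° C in pH 8.0 Tris buffer with BSA and 1% DMSO, then developer cleavage gives signal at Ex 360/Em 460. Enzyme: 0.3 ng/ul recombinant full-length human HDAC6, GST-tagged, Sf9-expressed.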

[2] = biological target: T2, Human HDAC5 (Homo sapiens, UniProt Q9UQL6); assay: HDAC5 biochemical assay, class IIa-specific substrate; settings: read-out: HDAC Isoform IC50 (nM) 5
T2 construct: full length with C-terminal His tag, MW=51.1 kDa; His (C); host or cells: baculovirus expression system
T2 sequence (Q9UQL6 656-1122 limits assumed): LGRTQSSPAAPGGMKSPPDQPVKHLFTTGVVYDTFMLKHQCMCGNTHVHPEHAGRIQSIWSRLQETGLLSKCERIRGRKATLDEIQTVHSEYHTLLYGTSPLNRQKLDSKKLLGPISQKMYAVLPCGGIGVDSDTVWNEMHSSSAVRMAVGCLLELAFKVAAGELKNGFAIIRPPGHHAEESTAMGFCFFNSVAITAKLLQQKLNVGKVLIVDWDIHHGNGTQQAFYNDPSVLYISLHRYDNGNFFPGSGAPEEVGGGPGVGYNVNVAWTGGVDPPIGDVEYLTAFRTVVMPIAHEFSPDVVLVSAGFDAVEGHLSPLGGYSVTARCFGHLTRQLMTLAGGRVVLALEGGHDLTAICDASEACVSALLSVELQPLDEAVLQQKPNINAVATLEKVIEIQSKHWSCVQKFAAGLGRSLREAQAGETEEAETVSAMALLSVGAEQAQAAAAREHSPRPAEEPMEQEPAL
Summary of the method: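 Two-step fluorogenic read-out: deacetylated trifluoroacetyl-lysine AMC substrate (50 μM) digested by developer, measured at Ex/Em 360/460. Deacetylation step: 0.05 ng/ul His-tagged full-length baculoviral enzyme with compound, 30 min, room temperature, pH 8.0 Tris with 1 mg/mL BSA and 1% DMSO.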

[3] = biological target: T3, Human HDAC11 (Homo sapiens, UniProt Q96DB2); assay: HDAC11 biochemical assay, class IIa-specific substrate; settings: read-out: HDAC Isoform IC50 (nM) 11
T3 construct: Human HDAC11 (full length); His (N); host or cells: baculovirus expression system
T3 sequence (Q96DB2 1-347): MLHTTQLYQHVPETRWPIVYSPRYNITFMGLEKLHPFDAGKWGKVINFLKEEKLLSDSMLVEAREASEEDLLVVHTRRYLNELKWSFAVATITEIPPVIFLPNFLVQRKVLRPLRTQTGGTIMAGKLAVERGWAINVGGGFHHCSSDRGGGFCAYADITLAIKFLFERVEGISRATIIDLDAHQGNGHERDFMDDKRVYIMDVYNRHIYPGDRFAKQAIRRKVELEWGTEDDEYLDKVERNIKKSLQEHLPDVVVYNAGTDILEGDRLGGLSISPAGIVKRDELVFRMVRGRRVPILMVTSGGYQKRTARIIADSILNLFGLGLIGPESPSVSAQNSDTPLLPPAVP
Summary of the method: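 Full-length N-His human HDAC11 from baculovirus, 5 ng/μl, incubated with 50 μM Boc-Lys(trifluoroacetyl)-AMC for 30 min at 30 °C. Buffer: 50 mM Tris-HCl pH 8.0, 137 mM NaCl, 2.7 mM KCl, 1 mM MgCl2, 1 mg/mL BSA, 1% DMSO. Developer releases AMC; fluorescence read at 360/460 nm.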

IC50 [1] | IC50 [2] | IC50 [3] | SMILES
≤ 500 nM | ≤ 1000 nM | > 10000 nM | O=C(c1cnnc(N(Cc2ccc(-c3noc(C(F)(F)F)n3)s2)c2cnccn2)c1)N1CC(C(F)F)C1 [Example GK, 5-[3-(Difluoromethyl)azetidine-1-carbonyl]-N-(pyrazin-2-yl)-N-({5-[5-(trifluoromethyl)-1,2,4-oxadiazol-3-yl]thiophen-2-yl}methyl)pyridazin-3-amine]
≤ 500 nM | ≤ 500 nM | > 10000 nM | O=C(c1ccc(N(Cc2ccc(-c3noc(C(F)(F)F)n3)s2)c2cnccn2)nn1)N1C[C@@H]2C[C@H]1C[S@@+]2[O-] [Example FR, (1S,2R,4S)-5-{6-[(Pyrazin-2-yl)({5-[5-(trifluoromethyl)-1,2,4-oxadiazol-3-yl]thiophen-2-yl}methyl)amino]pyridazine-3-carbonyl}-2-thia-5-azabicyclo[2.2.1]heptan-2-ium-2-olate]
≤ 500 nM | ≤ 500 nM | > 10000 nM | O=C(c1ccc(N(Cc2ccc(-c3noc(C(F)(F)F)n3)s2)c2cnccn2)nn1)N1CC[S+]([O-])CC1 [Example FD, 4-{6-[(Pyrazin-2-yl)({5-[5-(trifluoromethyl)-1,2,4-oxadiazol-3-yl]thiophen-2-yl}methyl)amino]pyridazine-3-carbonyl}-1lambda4-thiomorpholin-1-one]
≤ 500 nM | ≤ 1000 nM | > 10000 nM | CC(C)(O)c1cnnc(N(Cc2ccc(-c3noc(C(F)(F)F)n3)s2)c2cnccn2)c1 [Example GS, 2-{6-[(Pyrazin-2-yl)({5-[5-(trifluoromethyl)-1,2,4-oxadiazol-3-yl]thiophen-2-yl}methyl)amino]pyridazin-4-yl}propan-2-ol]
≤ 500 nM | ≤ 500 nM | > 10000 nM | COC1CN(C(=O)c2ccc(N(Cc3ccc(-c4noc(C(F)(F)F)n4)s3)c3cnccn3)nn2)C1 [Example DR, 6-(3-Methoxyazetidine-1-carbonyl)-N-(pyrazin-2-yl)-N-({5-[5-(trifluoromethyl)-1,2,4-oxadiazol-3-yl]thiophen-2-yl}methyl)pyridazin-3-amine]
≤ 500 nM | ≤ 1000 nM | > 10000 nM | COC1CN(Cc2ccnc(N(Cc3ccc(-c4noc(C(F)(F)F)n4)s3)c3cnccn3)c2)C1 [Example GH, N-{4-[(3-Methoxyazetidin-1-yl)methyl]pyridin-2-yl}-N-({5-[5-(trifluoromethyl)-1,2,4-oxadiazol-3-yl]thiophen-2-yl}methyl)pyrazin-2-amine]
≤ 500 nM | ≤ 1000 nM | > 10000 nM | COC1CN(C(=O)c2cnnc(N(Cc3ccc(-c4noc(C(F)(F)F)n4)s3)c3cnccn3)c2)C1 [Example DZ, 5-(3-Methoxyazetidine-1-carbonyl)-N-(pyrazin-2-yl)-N-({5-[5-(trifluoromethyl)-1,2,4-oxadiazol-3-yl]thiophen-2-yl}methyl)pyridazin-3-amine]
≤ 10000 nM | ≤ 10000 nM | > 10000 nM | COc1nccnc1N(Cc1ccc(-c2noc(C(F)(F)F)n2)s1)c1cnccn1 [Example BF, 3-Methoxy-N-(pyrazin-2-yl)-N-({5-[5-(trifluoromethyl)-1,2,4-oxadiazol-3-yl]thiophen-2-yl}methyl)pyrazin-2-amine]
≤ 500 nM | ≤ 1000 nM | > 10000 nM | O=C(c1cnnc(N(Cc2ccc(-c3noc(C(F)(F)F)n3)s2)c2cnccn2)c1)N1C[C@H]2C[C@@H]1CO2 [Example FW, 5-[(1R,4R)-2-Oxa-5-azabicyclo[2.2.1]heptane-5-carbonyl]-N-(pyrazin-2-yl)-N-({5-[5-(trifluoromethyl)-1,2,4-oxadiazol-3-yl]thiophen-2-yl}methyl)pyridazin-3-amine]
≤ 500 nM | ≤ 500 nM | > 10000 nM | O=C(c1ccc(N(Cc2ccc(-c3noc(C(F)(F)F)n3)s2)c2cnccn2)nn1)N1C[C@@H]2C[C@H]1CO2 [Example FE, 6-[(1S,4S)-2-Oxa-5-azabicyclo[2.2.1]heptane-5-carbonyl]-N-(pyrazin-2-yl)-N-({5-[5-(trifluoromethyl)-1,2,4-oxadiazol-3-yl]thiophen-2-yl}methyl)pyridazin-3-amine]
≤ 500 nM | ≤ 1000 nM | > 10000 nM | O=C(c1cnnc(N(Cc2ccc(-c3noc(C(F)(F)F)n3)s2)c2cnccn2)c1)N1CC(F)(F)C1 [Example FT, 5-(3,3-Difluoroazetidine-1-carbonyl)-N-(pyrazin-2-yl)-N-({5-[5-(trifluoromethyl)-1,2,4-oxadiazol-3-yl]thiophen-2-yl}methyl)pyridazin-3-amine]
≤ 500 nM | ≤ 500 nM | > 10000 nM | Cc1cncc(N(Cc2ccc(-c3noc(C(F)(F)F)n3)s2)c2cnccn2)n1 [Example BP, 6-Methyl-N-(pyrazin-2-yl)-N-({5-[5-(trifluoromethyl)-1,2,4-oxadiazol-3-yl]thiophen-2-yl}methyl)pyrazin-2-amine]
≤ 500 nM | ≤ 500 nM | > 10000 nM | O=C(c1ccc(N(Cc2ccc(-c3noc(C(F)(F)F)n3)s2)c2cnccn2)nn1)N1CCC12COC2 [Example FH, 6-{6-Oxa-1-azaspiro[3.3]heptane-1-carbonyl}-N-(pyrazin-2-yl)-N-({5-[5-(trifluoromethyl)-1,2,4-oxadiazol-3-yl]thiophen-2-yl}methyl)pyridazin-3-amine]
≤ 500 nM | ≤ 1000 nM | > 10000 nM | O=C(c1cnnc(N(Cc2ccc(-c3noc(C(F)(F)F)n3)s2)c2cnccn2)c1)N1CCS(=O)(=O)CC1 [Example ED, 4-{6-[(Pyrazin-2-yl)({5-[5-(trifluoromethyl)-1,2,4-oxadiazol-3-yl]thiophen-2-yl}methyl)amino]pyridazine-4-carbonyl}-1λ^6-thiomorpholine-1,1-dione]
≤ 500 nM | ≤ 1000 nM | > 10000 nM | N#Cc1cnnc(N(Cc2ccc(-c3noc(C(F)(F)F)n3)s2)c2cnccn2)c1 [Example EE, 6-[(Pyrazin-2-yl)({5-[5-(trifluoromethyl)-1,2,4-oxadiazol-3-yl]thiophen-2-yl}methyl)amino]pyridazine-4-carbonitrile]
≤ 500 nM | ≤ 500 nM | > 10000 nM | CNC(=O)c1ccc(N(Cc2ccc(-c3noc(C(F)(F)F)n3)s2)c2cnccn2)nn1 [Example FC, N-Methyl-6-[(pyrazin-2-yl)({5-[5-(trifluoromethyl)-1,2,4-oxadiazol-3-yl]thiophen-2-yl}methyl)amino]pyridazine-3-carboxamide]
